# Laboratory results as given in patent US5792444A, “Labeled chemotactic peptides to image focal sites of infection or inflammation” (The General Hospital Corporation, priority 1993, dated 1998).
# Read-outs that look alike come from different tables or passages of the source. *1 amine or outer side, *2 acyl side, *3 side chain or, on linkers, in order; H or OH if unused. Where a SMILES comes first, the peptide text is derived from it. Side-chain parts run from the residue outwards. [ ]: non-standard residue; d: D form. The star is where a group is joined. Isobutyloxycarbonyl = CC(C)COC(=O)*; Met(O) = CS(=O)CC[C@H](N)C(=O)O; Cha = N[C@@H](CC1CCCCC1)C(=O)O; HYNIC = NNc1ccc(C(=O)*)cn1; Nle = CCCC[C@H](N)C(=O)O; CO = O=C([*:1])[*:2]; NHPh = c1ccc(N*)cc1; NHiPr = CC(C)N*; For = O=C*
# Columns and labels:
# [1] = test system: neutrophils / human umbilical vein endothelial cells; assay: cells; assay type: cell-based
# Procedure: (§1) The unconjugated peptide iBoc-MLFK was evaluated in a neutrophil-endothelial cell adhesion assay. In this assay, neutrophils (5×10^5) labeled with 5-carboxyfluorescein diacetate were added into wells of a 48 well dish containing confluent human umbilical vein endothelial cells. The iBoc-MLFK peptide was added at a concentration of 10 μM 10 min prior to stimulation of neutrophils with 30 nM ForMLF. Percent adhesion was determined by washing off unattached neutrophils after an incubation period of 25 minutes. This peptide inhibited adhesion by 66% at this concentration. Subsequently, concentrations between 0.1-3.0 μM were examined. […] Inhibition of adhesion would reduce the infiltration of leukocytes, such as neutrophils, to a diseased site, thereby limiting the tissue damage associated with inflammation.
# (§2) The procedure of Example 5 was repeated for additional CP's within the scope of the present invention. The results are shown in Table I. In the table, MPO is myeloperoxidase assay, a "-" sign means there was no effect at 30 μM, a "+" sign means there was a positive effect at 30 μM, and "N.T." means "Not
# [2] = test system: neutrophils / human umbilical vein endothelial cells; assay: Adhesion agonist (neutrophil-endothelial cell adhesion assay); assay type: cell-based; details: read-out: Adhesion Agonist EC50
# Procedure: as §1, §2
# [3] = biological target: T1, neutrophils (Homo sapiens, UniProt P21462); assay: Binding (Table I, Cell Biology Data); details: for Binding EC50: class symbol
# T1 sequence (P21462 1-350): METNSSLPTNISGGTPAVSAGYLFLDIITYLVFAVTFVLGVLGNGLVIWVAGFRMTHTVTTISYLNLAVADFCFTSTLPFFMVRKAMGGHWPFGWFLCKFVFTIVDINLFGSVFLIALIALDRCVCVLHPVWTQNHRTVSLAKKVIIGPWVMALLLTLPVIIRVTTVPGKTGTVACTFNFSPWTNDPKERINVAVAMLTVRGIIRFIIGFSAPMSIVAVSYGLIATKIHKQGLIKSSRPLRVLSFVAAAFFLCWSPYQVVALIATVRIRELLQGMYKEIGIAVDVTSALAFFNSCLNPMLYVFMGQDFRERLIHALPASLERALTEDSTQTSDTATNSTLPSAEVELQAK
# From the text: Three non-DTPA derivatized peptides were included in the assay for comparison.
# [4] = test system: E. coli infection; set-up: species or system New Zealand white rabbits; details: rabbit, in vivo
# Procedure: Male New Zealand white rabbits weighing 2.2-3.0 kg were used in all studies. E. coli from a single clinical isolate were grown overnight on trypticase soy agar plates and individual colonies were diluted with sterile normal saline to produce a turbid suspension containing approximately 1×10^11 organisms/0.5 mL (determined with a spectrophotometer). A 0.5 mL inoculum of the bacterial suspension was injected deep in the left thigh muscle of the rabbits.
# Twenty four hours after inoculation, rabbits with gross swelling in the infected thigh were injected with the radiopharmaceuticals through a lateral ear vein. Six animals were injected with a mixture of 1 mCi ^99m Tc-HP (>5,000 mCi/μMole) and 0.05 mCi of ^111 In labeled white blood cells.
# At 3, 6, and 18 hours after injection of the radiolabeled reagents, the animals were anesthetized with ketamine/xylazine (15.0 and 1.5 mg/kg) and anterior whole body scintigrams were acquired using a large field of view gamma camera equipped with a parallel hole medium energy collimator interfaced to a dedicated computer system (Technicare Gemini 700, Technicare 560, Solon, Ohio). ^111 In and ^99m Tc images were acquired simultaneously in dual photon mode with 15% windows centered on photopeaks at 140 KeV for ^99m Tc and 247 KeV for ^111 In. At 3 and 6 hours after injection, two sets of images were acquired for a preset time of 5 minutes/view. At 18 hours after injection, the imaging time was extended to 10 minutes per view. Regions of interest were drawn over the area of infection and the contralateral normal muscle (background). The results were expressed as target-to-background ratios (infected thigh/contralateral thigh).
# After acquiring the final images, the animals were sacrificed with an overdose of sodium pentobarbital and biodistribution was determined. Samples of blood, heart, lung, liver, spleen, kidney, adrenal, stomach, GI tract, testes, bone, bone marrow, normal muscle, infected muscle, and pus were weighed and radioactivity was measured with a well type gamma counter (LKB model #1282, Wallac Oy, Finland). To correct for radioactive decay and permit calculation of the concentration of radioactivity in each organ as a fraction of the administered dose, aliquots of the injected doses were counted simultaneously. The results were expressed as percent injected dose per gram (%I.D./g), infected to normal muscle ratios, and pus to normal muscle ratios.
# To determine the nature of the radioactivity in the circulation and at the site of infection, the blood and pus samples were fractionated by gradient centrifugation on Lymphoprep. The plasma was further fractionated on a column of Sephadex G-100 (1.0×25 cm) eluted with PBS, pH 7.4. […]
# [5] = biological target: T2, chemoattractant receptor on human PMN's (Homo sapiens, UniProt P21462); assay: For-MLF receptor binding assay (For-ML[3H]F displacement); details: 15 nM For-ML[3H]F, 45 min, 24° C.
# T2 construct: endogenous in cells; host or cells: isolated human PMN's (neutrophils) from healthy volunteers, intact cells
# T2 sequence (P21462 1-350): T1 sequence (P21462 1-350)
# Procedure: Following incubation, the cells were filtered onto glass fiber discs (Whatman GF/C; Whatman, Inc., Clifton, N.J.) which were then washed with 20 mL of ice cold incubation buffer. The filters were placed in scintillation vials with 10 mL of Safety-Solve (Research Products International Corp., Mt. Prospect, Ill.) and radioactivity was measured by liquid scintillation spectroscopy. Specific binding is defined as total binding minus nonspecific binding. Nonspecific binding is the amount of residual bound radioactivity in the presence of 10 μM unlabeled For-MLF.
# The chemical purity of the final product was evaluated by TLC, HPLC, UV spectroscopy, mass spectroscopy, and amino acid analysis. Determinations of the EC50 's for binding to the chemoattractant receptor on human PMN's and superoxide generation were performed as described in Pike, M. C., and Snyderman, R., Methods Enzymol. 162:236-245 (1988); Pike, M. C., et al., Blood 67:909-913 (1986); and Fischman, A. J., et al., J. Nucl. Med. 32:483-491 (1991).
# [6] = biological target: T1, neutrophils; assay: Free radicals agonist (neutrophil free radical chemiluminescence); assay type: cell-based; details: class symbol
# [7] = biological target: T1, neutrophils; assay: Free radicals antagonist (inhibition of ForMLF stimulated free radical chemiluminescence); assay type: cell-based
# [8] = read-out: Adhesion Antagonist IC50
compound,measurement,setting,value
"CC(C)C[C@H](NC(=O)OCC1c2ccccc2-c2ccccc21)C(=O)O [Example 11, FMOC-Leucine]",IC50,"[1]; Homo sapiens, read-out: Adhesion Antagonist IC50",20 µM
"CSCC[C@H](NC(=O)c1ccc[nH]1)C(=O)N[C@@H](CC(C)C)C(=O)N[C@@H](Cc1ccccc1)C(=O)O [Example 25, Pyrrole-M--L--F]",IC50,[1]; [8],6.2 µM
"NNc1ccc(C(=O)O)cn1 [Example 26, Hynic]",EC50,[2]; Homo sapiens,> 30 µM
"CSCC[C@H](NC(=O)NC(C)C)C(=O)N[C@@H](CC(C)C)C(=O)N[C@@H](Cc1ccccc1)C(=O)N[C@@H](CCCCNC(=O)[C@H](CC(=O)O)NC(=O)c1ccc(NN)nc1)C(=O)O [Example 29, i-proplyurea-MLF--Lys--Asp--SHNH] ({NHiPr-CO}-MLFK([Asp-HYNIC])-OH; C-terminus assumed)",EC50,[2],0.73 µM
same,IC50,[1]; [8],> 30 µM
"CSCC[C@H](NC(=O)NC(C)C)C(=O)N[C@@H](CC(C)C)C(=O)N[C@@H](Cc1ccccc1)C(=O)NCCCNC(=O)c1ccc(NN)nc1 [Example 30, N-i-propylurea-MLF-propanediamine-SHNH]",EC50,[2]; class symbol,> 30 µM
same,IC50,[1]; [8],> 30 µM
"CSCC[C@H](NC(=O)NC(C)C)C(=O)N[C@@H](CC(C)C)C(=O)N[C@@H](Cc1ccccc1)C(=O)NCCCNC(=O)[C@H](CC(=O)O)NC(=O)c1ccc(NN)nc1 [Example 31, i-propylurea-MLF-n-propyldiamine-Asp--SHNH]",EC50,[2],1.1 µM
same,IC50,[1]; [8],> 30 µM
CSCC[C@H](NC(=O)Nc1ccccc1)C(=O)N[C@@H](CC(C)C)C(=O)N[C@@H](CC1CCCCC1)C(=O)O [Example 34] ({NHPh-CO}-Met-Leu-[Cha]-OH),EC50,[2]; class symbol,< 30 µM
"CSCC[C@H](NC(=O)OCC(C)C)C(=O)N[C@@H](CC(C)C)C(=O)N[C@@H](Cc1ccccc1)C(=O)N[C@@H](CCCCN)C(N)=O [Example 41, iBoc--MLFK] (Isobutyloxycarbonyl-MLFK-NH2)",IC50,[1],~14 µM
"CCCC[C@H](NC(=O)OCC(C)C)C(=O)N[C@@H](CC(C)C)C(=O)N[C@@H](Cc1ccccc1)C(=O)N[C@@H](CCCCN)C(N)=O [Example 49, iBoc--Nle--LFK] (Isobutyloxycarbonyl-[Nle]LFK-NH2)",Binding EC50,[3],? --
"CC(C)COC(=O)N[C@@H](CC[S+](C)[O-])C(=O)N[C@@H](CC(C)C)C(=O)N[C@@H](Cc1ccccc1)C(=O)N[C@@H](CCCCN)C(N)=O (stereo partly shown) [Example 50, iBoc--M(O)--LFK] (Isobutyloxycarbonyl-[Met(O)]LFK-NH2)",Binding EC50,[3],? --
"CSCC[C@H](NC=O)C(=O)N[C@@H](CC(C)C)C(=O)N[C@@H](Cc1ccccc1)C(=O)O [Example 59, N-formyl-methionyl-leucyl-phenylalanine, reference compound]",EC50,[2],0.007 µM
"CCCCNC(=O)N[C@@H](CCSC)C(=O)N[C@@H](CC(C)C)C(=O)N[C@@H](Cc1ccccc1)C(=O)O [Example 65, N-butylurea-MLF]",EC50,[2]; class symbol,< 30 µM
"CCCCC(=O)N[C@@H](CCSC)C(=O)N[C@@H](CC(C)C)C(=O)N[C@@H](Cc1ccccc1)C(=O)O [Example 79, n-butyl-amidyl-MLF]",EC50,[2]; class symbol,> 30 µM
same,IC50,[1]; [8],9.6 µM
"CSCC[C@H](NC(N)=O)C(=O)N[C@@H](CC(C)C)C(=O)N[C@@H](Cc1ccccc1)C(=O)O [Example 98, N-hydrourea-MLF]",EC50,[2],0.62 µM
"CSCC[C@H](NC=O)C(=O)N[C@@H](CC(C)C)C(=O)N[C@@H](Cc1ccccc1)C(=O)N[C@@H](CCCCNC(=O)c1ccc(NN)nc1)C(=O)O [Example 99mTc-HP, Formyl-Methionyl-Leucyl-Phenylalanyl-Lysyl-hydrazininicotinamide, metal not drawn] (For-MLFK(HYNIC)-OH)",binding to red blood cells,[4],< 2%
same,circulating radioactivity associated with leukocytes,[4],~ 25%
same,"plasma radioactivity not bound to WBC's eluting with apparent molecular weight of 150,000 (IgG fraction)",[4],> 95%
same,radioactivity of pus associated with WBC's,[4],approximately 90%
"CCCC[C@H](NC=O)C(=O)N[C@@H](CC(C)C)C(=O)N[C@@H](Cc1ccccc1)C(=O)O [For-NleLF, N-formyl-norleucyl-leucyl-phenylalanine] (For-[Nle]-Leu-Phe-OH)",EC50,[5],0.3 µM
Isopropylurea-FLFLF--Lys--Lys--SHNH [Example 18],EC50,[3],15.7 µM
same,EC50,[6],> 30 µM
same,IC50,[7],29.5 µM
Leu--Ala--SHNH--Boc [Example 8],EC50,[3],> 100 µM
same,EC50,[6],> 30 µM
N(N-isopropylurea-FLFLF-Propanediamine-SPNH [Example 94],EC50,[3],0.42 µM
same,EC50,[6],> 30 µM
same,IC50,[7],5 µM
same,EC50,[2]; class symbol,> 30 µM
iBoc--MLF--S--SPNH [Example 39],EC50,[3],0.6 to 22 µM
same,EC50,[6],> 30 µM
same,IC50,[7],3 to 3.5 µM
same,IC50,[1]; [8],> 30 µM
iBoc--MLF--SPNH [Example 37],EC50,[3],0.15 to 5 µM
same,EC50,[6],> 30 µM
same,IC50,[7],10 to 30 µM
same,IC50,[1]; [8],> 30 µM
